Experimental data from patent US12421211B2, “Heterocyclic compounds” (Hoffmann-La Roche Inc., priority 2021, dated 2025).
Where a name gives a salt, the structure may show the parent alone.

What follows are molecules tested on Acinetobacter baumannii ATCC17961 (assay: Antimicrobial susceptibility testing: 90% growth inhibitory concentration (IC90) determination). Conditions: Acinetobacter baumannii, ATCC17961, 16 h, 90% growth inhibitory concentration, Acinetobacter baumannii ATCC17961, Iso-Sensitest broth, OD 600 nm over 16 h; read-out: ATCC 17961 IC90.
Format: cell-based
Method: Assay Procedures Antimicrobial Susceptibility Testing: 90% Growth Inhibitory Concentration (IC90) Determination
The in vitro antimicrobial activity of the compounds was determined according to the following procedure:
The assay used a 10-points Iso-Sensitest broth medium to measure quantitatively the in vitro activity of the compounds against Acinetobacter baumannii ATCC17961.
Stock compounds in DMSO were serially twofold diluted (e.g. range from 50 to 0.097 μM final concentration) in 384 wells microtiter plates and inoculated with 49 μl the bacterial suspension in Iso-Sensitest medium to have a final cell concentration of ˜5×10^(5) CFU/ml in a final volume/well of 50 ul/well. Microtiter plates were incubated at 35±2° C.
Bacterial cell growth was determined with the measurement of optical density at λ=600 nm each 20 minutes over a time course of 16h. Growth inhibition was calculated during the logarithmic growth of the bacterial cells with determination of the concentration inhibiting 50% (IC50) and 90% (IC90) of the growth.
Table 1 provides the 90% growth inhibitory concentrations (IC90) in micromoles per liter of the compounds of present invention obtained against the strain Acinetobacter baumannii ATCC17961.

| SMILES | IC90 [nM] |
| --- | --- |
| Cc1nn(CC(=O)Nc2ccncc2)cc1-c1ccc(-c2cnc(C(=O)Nc3ccc(C(=O)N4CCN(C(=O)C5CC[N+](C)(C)CC5)CC4)c(Cl)c3)n2C)c(F)c1F [Example G17, N-[3-chloro-4-[4-(1,1-dimethylpiperidin-1-ium-4-carbonyl)piperazine-1-carbonyl]phenyl]-5-[2,3-difluoro-4-[3-methyl-1-[2-oxo-2-(4-pyridylamino)ethyl]pyrazol-4-yl]phenyl]-1-methyl-imidazole-2-carboxamide; chloride] | 720 |
| Cc1n[nH]cc1-c1ccc(-c2cnc(C(=O)Nc3ccc(C(=O)N4CCN(C(=O)C5CC[N+](C)(CC6CNC6)CC5)CC4)c(Cl)c3)n2C)c(F)c1F (centres unmarked) [Example J1, N-[4-[4-[1-(azetidin-3-ylmethyl)-1-methyl-piperidin-1-ium-4-carbonyl]piperazine-1-carbonyl]-3-chloro-phenyl]-5-[2,3-difluoro-4-(3-methyl-1H-pyrazol-4-yl)phenyl]-1-methyl-imidazole-2-carboxamide; formate] | 22 |
| Cc1nn(CCNS(=O)(=O)c2ccc(F)cc2)cc1-c1ccc(-c2cnc(C(=O)Nc3ccc(C(=O)N4CCN(C(=O)C5CC[N+](C)(C)CC5)CC4)c(Cl)c3)n2C)c(F)c1F [Example H3, N-[3-chloro-4-[4-(1,1-dimethylpiperidin-1-ium-4-carbonyl)piperazine-1-carbonyl]phenyl]-5-[2,3-difluoro-4-[1-[2-[(4-fluorophenyl)sulfonylamino]ethyl]-3-methyl-pyrazol-4-yl]phenyl]-1-methyl-imidazole-2-carboxamide; formate] | 180 |

Second part, the molecule after the results:

| IC90 [nM] | SMILES |
| --- | --- |
| 120 | COCCn1ncc(-c2ccc(-c3cnc(C(=O)Nc4ccc(C(=O)N5CCN(C(=O)C6CC[N+](C)(C)CC6)CC5)c(Cl)c4)n3C)c(C)c2F)c1C [Example F3, N-[3-chloro-4-[4-(1,1-dimethylpiperidin-1-ium-4-carbonyl)piperazine-1-carbonyl]phenyl]-5-[3-fluoro-4-[1-(2-methoxyethyl)-5-methyl-pyrazol-4-yl]-2-methyl-phenyl]-1-methyl-imidazole-2-carboxamide; formate] |
| 98 | COCCn1ncc(-c2ccc(-c3cnc(C(=O)Nc4ccc(C(=O)N5CCC(C(=O)N6CC[N+](C)(CC7CNC7)CC6)CC5)c(Cl)c4)n3C)c(F)c2F)c1C [Example B23, N-[4-[4-[4-(azetidin-3-ylmethyl)-4-methyl-piperazin-4-ium-1-carbonyl]piperidine-1-carbonyl]-3-chloro-phenyl]-5-[2,3-difluoro-4-[1-(2-methoxyethyl)-5-methyl-pyrazol-4-yl]phenyl]-1-methyl-imidazole-2-carboxamide; formate] |
| 600 | Cc1nn(CCOCCN)c(C)c1-c1ccc(-c2cnc(C(=O)Nc3ccc(C(=O)N4CCN(C(=O)[C@@H]5C[C@@H](O)C[N+]5(C)C)CC4)c(Cl)c3)n2C)c(F)c1F [Example K1, 5-[4-[1-[2-(2-aminoethoxy)ethyl]-3,5-dimethyl-pyrazol-4-yl]-2,3-difluoro-phenyl]-N-[3-chloro-4-[4-[(2S,4R)-4-hydroxy-1,1-dimethyl-pyrrolidin-1-ium-2-carbonyl]piperazine-1-carbonyl]phenyl]-1-methyl-imidazole-2-carboxamide; 2,2,2-trifluoroacetate] |
| 657 | COCCn1ncc(-c2ccc(-c3cnc(C(=O)Nc4ccc(C(=O)N5CCN(C(=O)CCC[N+](CCN(C)C)(CCN(C)C)CC(=O)O)CC5)c(Cl)c4)n3C)c(F)c2F)c1C [Example P4, carboxymethyl-[4-[4-[2-chloro-4-[[5-[2,3-difluoro-4-[1-(2-methoxyethyl)-5-methyl-pyrazol-4-yl]phenyl]-1-methyl-imidazole-2-carbonyl]amino]benzoyl]piperazin-1-yl]-4-oxo-butyl]-bis[2-(dimethylamino)ethyl]ammonium; 2,2,2-trifluoroacetate] |
| 170 | Cc1nn(CCNC(=O)NC(C)(C)C)cc1-c1ccc(-c2cnc(C(=O)Nc3ccc(C(=O)N4CCN(C(=O)C5CC[N+](C)(C)CC5)CC4)c(Cl)c3)n2C)c(F)c1F [Example H5, 5-[4-[1-[2-(tert-butylcarbamoylamino)ethyl]-3-methyl-pyrazol-4-yl]-2,3-difluoro-phenyl]-N-[3-chloro-4-[4-(1,1-dimethylpiperidin-1-ium-4-carbonyl)piperazine-1-carbonyl]phenyl]-1-methyl-imidazole-2-carboxamide; formate] |
| 210 | COCCn1ncc(-c2ccc(-c3cnc(C(=O)Nc4ccc(C(=O)NCC5CCN(C(=O)CN(C)C)CC5)c(Cl)c4)n3C)c(F)c2F)c1C [Example D33, N-[3-chloro-4-[[1-[2-(dimethylamino)acetyl]-4-piperidyl]methylcarbamoyl]phenyl]-5-[2,3-difluoro-4-[1-(2-methoxyethyl)-5-methyl-pyrazol-4-yl]phenyl]-1-methyl-imidazole-2-carboxamide; 2,2,2-trifluoroacetic acid] |
| 77 | COCCn1ncc(-c2ccc(-c3cnc(C(=O)Nc4ccc(C(=O)N[C@H]5[C@@H]6CN(C(=O)[C@@H]7C[C@@H](O)C[N+]7(C)C)C[C@@H]65)c(Cl)c4)n3C)c(F)c2F)c1C [Example D40, N-[3-chloro-4-[[(1S,5R)-3-[(2S,4R)-4-hydroxy-1,1-dimethyl-pyrrolidin-1-ium-2-carbonyl]-3-azabicyclo[3.10]hexan-6-yl]carbamoyl]phenyl]-5-[2,3-difluoro-4-[1-(2-methoxyethyl)-3,5-dimethyl-pyrazol-4-yl]phenyl]-1-methyl-imidazole-2-carboxamide; formate] |
| 300 | Cc1nn(CC(=O)Nc2ccc[n+](C)c2)cc1-c1ccc(-c2cnc(C(=O)Nc3ccc(C(=O)N4CCN(C(=O)C5CC[N+](C)(C)CC5)CC4)c(Cl)c3)n2C)c(F)c1F [Example G15, N-[3-chloro-4-[4-(1,1-dimethylpiperidin-1-ium-4-carbonyl)piperazine-1-carbonyl]phenyl]-5-[2,3-difluoro-4-[3-methyl-1-[2-[(1-methylpyridin-1-ium-3-yl)amino]-2-oxo-ethyl]pyrazol-4-yl]phenyl]-1-methyl-imidazole-2-carboxamide; diformate] |
| 100 | COCCn1ncc(-c2ccc(-c3cnc(C(=O)Nc4ccc(C(=O)N5CCN(C(=O)C6CC[N+](C)(CC7CNC7)CC6)CC5)c(Cl)c4)n3C)c(F)c2F)c1C (centres unmarked) [Example B21, N-[4-[4-[1-(azetidin-3-ylmethyl)-1-methyl-piperidin-1-ium-4-carbonyl]piperazine-1-carbonyl]-3-chloro-phenyl]-5-[2,3-difluoro-4-[1-(2-methoxyethyl)-5-methyl-pyrazol-4-yl]phenyl]-1-methyl-imidazole-2-carboxamide; formic acid; formate] |
| 100 | COCCn1ncc(-c2ccc(-c3cnc(C(=O)Nc4ccc(C(=O)N5CCN(C(=O)[C@@H]6C[C@@H](O)C[N+]6(C)C)CC5)c(C)c4)n3C)c(F)c2F)c1C [Example F14, 5-[2,3-difluoro-4-[1-(2-methoxyethyl)-5-methyl-pyrazol-4-yl]phenyl]-N-[4-[4-[(2S,4R)-4-hydroxy-1,1-dimethyl-pyrrolidin-1-ium-2-carbonyl]piperazine-1-carbonyl]-3-methyl-phenyl]-1-methyl-imidazole-2-carboxamide; 2,2,2-trifluoroacetate] |

Same assay, conditions: Acinetobacter baumannii, ATCC17961, 16 h, read-out: ATCC 17961 IC90

| SMILES | IC90 [nM] |
| --- | --- |
| COCCn1nc(C)c(-c2ccc(-c3cnc(C(=O)Nc4ccc(C(=O)N5CCN(C(=O)C6CC[N+](C)(CCOC)CC6)CC5)c(Cl)c4)n3C)c(F)c2F)c1C (centres unmarked) [Example B9, N-[3-chloro-4-[4-[1-(2-methoxyethyl)-1-methyl-piperidin-1-ium-4-carbonyl]piperazine-1-carbonyl]phenyl]-5-[2,3-difluoro-4-[1-(2-methoxyethyl)-3,5-dimethyl-pyrazol-4-yl]phenyl]-1-methyl-imidazole-2-carboxamide; formate] | 510 |
| COCCn1cc(-c2ccc(-c3cnc(C(=O)Nc4ccc(C(=O)N5CCN(C(=O)[C@H]6CC[N@@+](CC(=O)O)(CC7CNC7)CC6)CC5)c(Cl)c4)n3C)c(F)c2F)c(C)n1 [Example Q3, trans 2-[1-(azetidin-3-ylmethyl)-4-[4-[2-chloro-4-[[5-[2,3-difluoro-4-[1-(2-methoxyethyl)-3-methyl-pyrazol-4-yl]phenyl]-1-methyl-imidazole-2-carbonyl]amino]benzoyl]piperazine-1-carbonyl]piperidin-1-ium-1-yl]acetic acid; formate] | 359 |
| Cc1ccc(NC(=O)Cn2cc(-c3ccc(-c4cnc(C(=O)Nc5ccc(C(=O)N6CCN(C(=O)C7CC[N+](C)(C)CC7)CC6)c(Cl)c5)n4C)c(F)c3F)c(C)n2)nn1 [Example L3, N-[3-chloro-4-[4-(1,1-dimethylpiperidin-1-ium-4-carbonyl)piperazine-1-carbonyl]phenyl]-5-[2,3-difluoro-4-[3-methyl-1-[2-[(6-methylpyridazin-3-yl)amino]-2-oxo-ethyl]pyrazol-4-yl]phenyl]-1-methyl-imidazole-2-carboxamide; formate] | 264 |
| COCCn1nc(C)c(-c2ccc(-c3cnc(C(=O)Nc4ccc(C(=O)N5CCN(C(=O)C6CC[N+](C)(CCO)CC6)CC5)c(Cl)c4)n3C)c(F)c2F)c1C (centres unmarked) [Example B8, N-[3-chloro-4-[4-[1-(2-hydroxyethyl)-1-methyl-piperidin-1-ium-4-carbonyl]piperazine-1-carbonyl]phenyl]-5-[2,3-difluoro-4-[1-(2-methoxyethyl)-3,5-dimethyl-pyrazol-4-yl]phenyl]-1-methyl-imidazole-2-carboxamide; formate] | 280 |
